Source: PubChem BioAssay (NCI)
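48-hour exposure; five concentrations; linearly interpolated endpoints. GI50 = concentration required for 50% inhibition of growth. TGI: total growth inhibition.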

Legend:
Test in all cases: DTP human tumour cell line panel, 48 h
SNB-78 CNS = tested on: SNB-78 CNS
HCC-2998 colon = tested on: HCC-2998 colon
ACHN renal = tested on: ACHN renal
RPMI-8226 leukemia = tested on: RPMI-8226 leukemia
NCI-H226 lung = tested on: NCI-H226 lung
786-0 renal = tested on: 786-0 renal
T-47D breast = tested on: T-47D breast
PC-3 prostate = tested on: PC-3 prostate
MDA-MB-435 = tested on: MDA-MB-435
DU-145 prostate = tested on: DU-145 prostate

Structure (SMILES)	TGI (SNB-78 CNS) [µM]	TGI (HCC-2998 colon) [µM]	TGI (ACHN renal) [µM]	TGI (RPMI-8226 leukemia) [µM]	TGI (NCI-H226 lung) [µM]	TGI (786-0 renal) [µM]	TGI (T-47D breast) [µM]	TGI (PC-3 prostate) [µM]	TGI (MDA-MB-435) [µM]	TGI (DU-145 prostate) [µM]	GI50 (NCI-H226 lung) [µM]	GI50 (T-47D breast) [µM]	GI50 (PC-3 prostate) [µM]	GI50 (HCC-2998 colon) [µM]	GI50 (ACHN renal) [µM]	GI50 (MDA-MB-435) [µM]	GI50 (DU-145 prostate) [µM]	GI50 (RPMI-8226 leukemia) [µM]	GI50 (SNB-78 CNS) [µM]
Cn1ncc2c(=O)[nH]c(-c3ccccc3)nc21	> 100	> 100	> 100	> 100															
CCc1cc(C)cc2[n+]1CC=C2C	> 100	> 100	> 100		> 100	> 100													
N=C(N)SC(c1ccccc1)c1ccccc1		20.1	29.8	31.7	60.9	25.2	22.6	27.3	26.5	25.4									
O=C(Nc1ccc(-n2ccc3c(NC(=O)c4ccccc4)ncnc32)cc1)Nc1ccc(Cl)c(C(F)(F)F)c1		6.54	3.62	2.84	7.06		5.73	3.01	4.43	4.61	2.39	2.27	1.25	2.47	1.58	1.85	2.12	1.03	
O=C1CC(c2ccccc2)NCCCCN2CC(CN1)C(C(O)c1ccccc1)C2=O (stereo not given)		> 100	> 100		> 100	> 100	> 100	> 100	> 100	> 100									
NS(=O)(=O)c1ccc(C(=O)O)cc1			> 100	> 100		> 100	> 100	> 100	> 100	> 100									
COc1ccc2c(c1)C(=O)c1c-2n(CCCCl)c(=O)c2cc([N+](=O)[O-])ccc12		> 28.6		1.6	> 100	0.159	> 100	> 100	9.22	> 100	< 0.01		1.68	0.996	< 0.01	0.985	0.0361	0.075	
COc1cc2c(cc1OCCCOc1cc3c(cc1OC)C(=O)N1CC(F)(F)C[C@H]1C=N3)N=C[C@@H]1CC(F)(F)CN1C2=O		3.45	13.9	5.79		0.877	5.12	9.9	4.91	2.82		0.344	1.28	1.37	0.973	1.6	0.329	1.64	
Cc1cccc(NC(N)=S)c1	> 100	> 100	> 100																
CC(C)(c1ccccc1)c1ccc(Oc2ccc3c(c2)-c2nc-3nc3[nH]c(nc4nc(nc5[nH]c(n2)c2ccc(Oc6ccc(C(C)(C)c7ccccc7)cc6)cc52)-c2cc(Oc5ccc(C(C)(C)c6ccccc6)cc5)ccc2-4)c2ccc(Oc4ccc(C(C)(C)c5ccccc5)cc4)cc32)cc1	> 100	> 100	> 100	> 100		> 100													
Nc1ccc([As](=O)(O)O)cc1		> 100	> 100		> 100	> 100	> 100	> 100	> 100	> 100									
Cc1cc(N2CCCCC2)nc(NCc2cc(Nc3ccnc4cc(Cl)ccc34)ccc2F)n1			3.25	4.55	4.57		2.99	4.04	3.14	3.14	2.02	1.26	1.9		1.66	1.64	1.49	1.88	
Cc1nc2ccccc2c(=O)n1Nc1ccc(C(=O)O)cc1	> 100	> 100		> 100	> 100														
CN(C)C=O.CN(C)C=O.CN1C(C(=O)Nc2ccccn2)=C([O-])c2ccccc2S1(=O)=O.CN1C(C(=O)Nc2ccccn2)=C([O-])c2ccccc2S1(=O)=O.[Cu+2]	> 100	> 100	> 100	> 100		> 100								> 100					64.3
